Laboratory results as given in patent publication US7094801B2, “Chalcone derivatives and their use to treat diseases” (Atherogenics, Inc., priority 2001, dated 2006).
pIC50: −log10 of the molar value. Structures can show the parent of a compound that is named as a salt.

Experiments:
[1] = system: VCAM-1; assay: In Vitro VCAM-1 Assay (TNF-α stimulated HAEC or HPAEC, cell ELISA); format: cell-based, human; settings: Homo sapiens, 16 h, TNF-α (1 ng/ml) stimulated HAEC or HPAEC, approximately 16 hours
Procedure: Cell Culture and compound dosing: Cultured primary human aortic (HAEC) or pulmonary (HPAEC) endothelial cells were obtained from Clonetics, Inc., and were used below passage 9. Cells were seeded in 96 well plates such that they would reach 90–95% confluency by the following day. On the following day the cells were stimulated with TNF-α (1 ng/ml) in the presence or absence of compounds dissolved in DMSO such that the final concentration of DMSO is 0.25% or less. To establish a dose curve for each compound, four concentrations in 2- to 5-fold increments were used. Cells were exposed to TNF-α and compounds for approximately 16 hours. The next day the cells were examined under microscope to score for visual signs of toxicity or cell stress.
Following 16 hr exposure to TNF-α and compound the media was discarded and the cells were washed once with Hanks Balanced Salt Solution (HBSS)/Phosphate buffered saline (PBS) (1:1). Primary antibodies against VCAM-1 (0.25 μg/ml in HBSS/PBS+5% FBS) were added and incubated for 30–60 minutes at 37° C. Cells were washed with HBSS/PBS three times, and secondary antibody Horse Radish Peroxidase (HRP)-conjugated goat anti-mouse IgG (1:500 in HBSS/PBS+5% FBS) were added and incubated for 30 minutes at 37° C. Cells were washed with HBSS/PBS four time and TMB substrate were added and incubated at room temperature in the dark until there was adequate development of blue color. The length of time of incubation was typically 5–15 minutes. 2N sulfuric acid was added to stop the color development and the data was collected by reading the absorbance on a BioRad ELISA plate reader at OD 450 nm. The results are expressed as IC50 values (the concentration (micromolar) of compound required to inhibit 50% of the maximal response of the control sample stimulated by TNF-α only).

| Structure (SMILES) | melting point | pIC50 [1] |
| --- | --- | --- |
| COc1cc(OCCN2CCOCC2)c(/C=C/C(=O)c2ccc(S(N)(=O)=O)cc2)cc1-c1cccs1.Cl | 235 °C (dec.) | – |
| COc1cc(OC)c(-c2cc3ccccc3s2)cc1/C=C/C(=O)c1ccc(C(=O)O)cc1 (as salt: salt) [Example 120, 4-[3E-(5-Benzo[b]thien-2-yl-2,4-dimethoxyphenyl)-acryloyl]-benzoic acid, N-methyl-D-glucamine salt] | 75 to 80 °C | – |
| NS(=O)(=O)c1ccc(C(=O)/C=C/c2cccc(C3CC=CO3)c2)cc1 (centres unmarked) [Example 119, 4-{3-[3E-(2,3-Dihydro-furan-2-yl)-phenyl]-acryloyl}-benzenesulfonamide] | 152 to 153 °C | – |
| COc1cc(OC)c(-c2c[nH]c(C3CC3)n2)cc1/C=C/C(=O)c1ccc(C(=O)O)cc1.Cl [Example 105, 4-{3E-[5-(2-Cyclopropyl-1H-imidazol-4-yl)-2,4-dimethoxy-phenyl]-acryloyl}-benzoic acid, hydrochloride] | > 240 °C | – |
| O=C(/C=C/c1ccc(-c2cccs2)cc1)c1ccc(SC(F)(F)C(=O)O)cc1 [Example 25, Difluoro-{4-[3E-(4-thiophen-2-yl-phenyl)-acryloyl]-phenylthio}-acetic acid, sodium salt] | – | < 5.00 |
| COc1cc(OC(C)(C)C(=O)O)c(/C=C/C(=O)c2ccc(S(N)(=O)=O)cc2)cc1-c1cccs1 [Example 82, 2-{5-Methoxy-2-[3-oxo-3-(4-aminosulfonyl-phenyl)-E-propenyl]-4-thiophen-2-yl-phenoxy}-2-methyl-propionic acid] | 164 to 165 °C | – |
| O=C(O)CNC(=O)Nc1ccc(C(=O)/C=C/c2ccc(-c3cccs3)cc2)cc1 [Example 97, 4(3E-{4-[3-(4-Thiophen-2-yl-phenyl)-acryloyl]-phenyl}-ureido)-acetic acid] | 222 to 225 °C | – |
| COc1cc(OC)c(-c2cccs2)cc1/C=C/C(=O)c1ccc(C(C)(C)C(=O)O)cc1 [Example 77, 2-{4-[3E-(2,4-Dimethoxy-5-thiophen-2-yl-phenyl)-acryloyl]-phenyl}-2-methyl-propionic acid] | – | > 5.30 |
| COc1cc(/C=C/C(=O)c2ccc3c(ccn3C)c2)cc(-c2cccs2)c1OC [Example 28, 3E-(3,4-Dimethoxy-5-thiophen-2-yl-phenyl)-1-(1-methyl-1H-indol-5-yl)-propenone] | – | > 5.30 |
| COc1cc(OC)c(-c2cc3ccccc3n2C)cc1/C=C/C(=O)c1ccc(C(=O)O)cc1 [Example 116, 4-{3E-[2,4-Dimethoxy-5-(1-methyl-1H-indol-2-yl)-phenyl]-acryloyl}-benzoic acid] | 157 to 160 °C | – |
| COc1cc(OC)c(-c2cc3ccccc3s2)cc1/C=C/C(=O)c1ccc(C(=O)[O-])cc1.[Na+] [Example 56, 4-[3E-(5-Benzo[b]thiophen-2-yl-2,4-dimethoxy-phenyl)-acryloyl]-benzoic acid, sodium salt] | > 235 °C | – |
| O=C([O-])c1ccc(/C=C/C(=O)c2ccc(-c3cccs3)cc2)cc1.[Na+] [Example 17, 4-[3-{4-(thien-2-yl)-phenyl}-3-oxo-E-propenyl]-benzoic acid, sodium salt] | > 260 °C | – |
| COc1cc(OC)c(-c2nc3cccnc3[nH]2)cc1/C=C/C(=O)c1ccc(S(N)(=O)=O)cc1 [Example 112, 4-{3E-[5-(3H-Imidazo[4,5-b]pyridin-2-yl)-2,4-dimethoxy-phenyl]-acryloyl}-benzenesulfonamide] | > 260 °C | – |
| COc1cc(OC(C)(C)C(=O)O)c(/C=C/C(=O)c2ccc(C(=O)O)cc2)cc1-c1cccs1 [Example 59, 4-{3E-[2-(1-Carboxy-1-methyl-ethoxy)-4-methoxy-5-thiophen-2-yl-phenyl]-acryloyl}-benzoic acid] | 223 to 225 °C | – |
| COc1cc(OCCC2CCCN2C)c(/C=C/C(=O)c2ccc(C(=O)O)cc2)cc1-c1cccs1.Cl (centres unmarked) [Example 73, 4-(3E-{4-Methoxy-2-[2-(1-methyl-pyrrolidin-2-yl)-ethoxy]-5-thiophen-2-yl-phenyl}-acryloyl)-benzoic acid, hydrochloride] | 206 to 208 °C | – |
| O=C(O)c1ccc(C(=O)/C=C/c2cc(-c3cccs3)ccc2N2CCCC2)cc1 [Example 63, 4-[3E-(2-Pyrrolidin-1-yl-5-thiophen-2-yl-phenyl)-acryloyl]-benzoic acid] | – | > 5.00 |
| COc1cc(Oc2cccc(C)n2)c(/C=C/C(=O)c2ccc(S(N)(=O)=O)cc2)cc1-c1cccs1 [Example 122, 4-{3E-[4-Methoxy-2-(6-methyl-pyridin-2-yloxy)-5-thiophen-2-yl-phenyl]-acryloyl}-benzenesulfonamide] | 164 to 165 °C | – |
| COc1cc(OC)c(-c2nncn2CC(C)C)cc1/C=C/C(=O)c1ccc(S(N)(=O)=O)cc1 [Example 109, 4-{3E-[5-(4-Isobutyl-4H-[1,2,4]triazol-3-yl)-2,4-dimethoxy-phenyl]-acryloyl}-benzenesulfonamide] | > 240 °C | – |
| COc1cc(OCC(N)=O)c(/C=C/C(=O)c2ccc(C(=O)O)cc2)cc1-c1cccs1 [Example 71, 4-[3E-(2-Carbamoylmethoxy-4-methoxy-5-thiophen-2-yl-phenyl)-acryloyl]-benzoic acid] | 235 °C (dec.) | – |

Next, values leading:

| melting point | pIC50 [1] | Structure (SMILES) |
| --- | --- | --- |
| – | < 5.00 | COc1cc(OC)c(-c2ccc(C(=O)O)s2)cc1/C=C/C(=O)c1ccc(C(=O)O)cc1 [Example 52, 5-{5-[3-(4-Carboxy-phenyl)-3-oxo-E-propenyl]-2,4-dimethoxy-phenyl}-thiophene-2-carboxylic acid] |
| – | < 5.00 | CCOC(=O)C1(C(=O)OCC)Oc2ccc(C(=O)/C=C/c3cc(OC)c(OC)c(-c4cccs4)c3)cc2O1 [Example 103, 5-[3E-(3,4-Dimethoxy-5-thiophen-2-yl-phenyl)-acryloyl]-benzo[1,3]dioxole-2,2-dicarboxylic acid, diethyl ester] |
| 253 to 255 °C | – | COc1cc(OC)c(-c2cccnc2)cc1/C=C/C(=O)c1ccc(S(N)(=O)=O)cc1 [Example 104, 4-[3E-(2,4-Dimethoxy-5-pyridin-3-yl-phenyl)-acryloyl]-benzenesulfonamide] |
| – | < 5.00 | COc1cc(OC)c(-c2cc3ccccc3s2)cc1/C=C/C(=O)c1ccc(NC2OC(CO)C(O)C(O)C2O)cc1 [Example 99, 3E-(5-Benzo[b]thiophen-2-yl-2,4-dimethoxy-phenyl)-1-[4-(D-glucopyranosylamino)-phenyl]-propenone] |
| – | > 6.00 | COc1cc(OC)c(-c2cc3ccccc3s2)cc1/C=C/C(=O)c1ccc(C(=O)NCCN2CCOCC2)cc1 [Example 90, 4-[3E-(5-Benzo[b]thiophen-2-yl-2,4-dimethoxy-phenyl)-acryloyl]-N-(2-morpholin-4-yl-ethyl)-benzamide] |
| 194 to 195 °C | – | COc1cc(OC)c(C2C=CCO2)cc1/C=C/C(=O)c1ccc(S(N)(=O)=O)cc1 (centres unmarked) [Example 121, 4-{3E-[5-(2,5-Dihydro-furan-2-yl)-2,4-dimethoxy-phenyl]-acryloyl}-benzenesulfonamide] |
| – | > 5.30 | COc1cc(OC)c(-c2cc3ccccc3s2)cc1/C=C/C(=O)c1ccc(S(N)(=O)=O)cc1 [Example 80, 4-[3E-(5-Benzo[b]thiophen-2-yl-2,4-dimethoxy-phenyl)-acryloyl]-benzenesulfonamide] |
| – | > 5.30 | COc1cc(/C=C/C(=O)c2ccc(N(C)S(C)(=O)=O)cc2)cc(-c2cccs2)c1OC [Example 98, N-{4-[3E-(3,4-Dimethoxy-5-thiophen-2-yl-phenyl)-acryloyl]-phenyl}-N-methyl-methanesulfonamide] |
| – | > 6.00 | COc1cc(OC)c(-c2cc3ccccc3s2)cc1/C=C/C(=O)c1ccc(C(=O)O)cc1 [Example 120, 4-[3E-(5-Benzo[b]thien-2-yl-2,4-dimethoxyphenyl)-acryloyl]-benzoic acid, N-methyl-D-glucamine salt] |
| – | > 6.00 | COc1cc(OC)c(-c2cc3ccccc3s2)cc1/C=C/C(=O)c1ccc(SCC(=O)O)cc1 [Example 23, {4-[3E-(5-Benzo[b]thiophen-2-yl-2,4-dimethoxy-phenyl)-acryloyl]-phenylthio}-acetic acid] |
| 231 to 233 °C | – | COc1cc(OCC(=O)N2CCOCC2)c(/C=C/C(=O)c2ccc(C(=O)O)cc2)cc1-c1cccs1 [Example 72, 4-{3E-[4-Methoxy-2-(2-morpholin-4-yl-2-oxo-ethoxy)-5-thiophen-2-yl-phenyl]-acryloyl}-benzoic acid] |
| 127 to 128 °C | – | COc1cc(OC)c(-c2cc3ccccc3s2)cc1/C=C/C(=O)c1ccc(S(=O)(=O)c2ccccc2)cc1 [Example 107, 1-(4-Benzenesulfonyl-phenyl)-3E-(5-benzo[b]thiophen-2-yl-2,4-dimethoxy-phenyl)-propenone] |
| 163 to 164 °C (dec.) | – | COc1cc(OCc2nnn[nH]2)c(/C=C/C(=O)c2ccc(S(N)(=O)=O)cc2)cc1-c1cccs1 [Example 89, 4-{3E-[4-Methoxy-2-(1H-tetrazol-5-ylmethoxy)-5-thiophen-2-yl-phenyl]-acryloyl}-benzenesulfonamide] |
